For one test, the system named is BRAPL. As to the kind of experiment: greenhouse post-emergence herbicidal activity. In kind it is in vivo, Brachiaria plantaginea. Conditions: scale 0 to 100. From the text: (§1) The culture containers used were plastic flowerpots containing loamy sand with approximately 3.0% of humus as the substrate. The seeds of the test plants were sown separately for each species.
(§2) For the post-emergence treatment, the test plants were first grown to a height of 3 to 15 cm, depending on the plant habit, and only then treated with the active ingredients which had been suspended or emulsified in water. For this purpose, the test plants were either sown directly and grown in the same containers, or they were first grown separately as seedlings and transplanted into the test containers a few days prior to treatment.
(§3) Depending on the species, the plants were kept at 10-25° C. or 20-35° C. The test period extended over 2 to 4 weeks. During this time, the plants were tended, and their response to the individual treatments was evaluated.
(§4) Evaluation was carried out using a scale from 0 to 100. 100 means no emergence of the plants, or complete destruction of at least the aerial moieties, and 0 means no damage, or normal course of growth. A good herbicidal activity is given at values of at least 70 and a very good herbicidal activity is given at values of at least 85.

For another test, the system named is DIGSA. As to the kind of experiment: greenhouse post-emergence herbicidal activity. In kind it is in vivo, Digitaria sanguinales. Conditions: scale 0 to 100.
Source text: as §1, §2, §3, §4

The next test has as its system PANDI. As to the kind of experiment: greenhouse pre-emergence herbicidal activity. The format is in vivo, Panicum dichotomiflorun. Conditions: scale 0 to 100.
Source text: as §1
(§5) For the pre-emergence treatment, the active ingredients, which had been suspended or emulsified in water, were applied directly after sowing by means of finely distributing nozzles. The containers were irrigated gently to promote germination and growth and subsequently covered with transparent plastic hoods until the plants had rooted. This cover caused uniform germination of the test plants, unless this has been impaired by the active ingredients.
as §3, §4

In a further test the test system is ABUTH. Kind of test: greenhouse pre-emergence herbicidal activity. The format is in vivo, Abutilon theophrasti. Conditions: scale 0 to 100.
Source text: as §1, §5, §3, §4

Another test relates to SETFA. As to the kind of experiment: greenhouse post-emergence herbicidal activity. In kind it is in vivo, Setaria faberi. Conditions: scale 0 to 100.
Source text: as §1, §2, §3, §4

Test [1] has as its system SETVI. Kind of test: greenhouse post-emergence herbicidal activity. Conditions: scale 0 to 100. The format is in vivo, Setaria viridis.
Source text: as §1, §2, §3, §4

The next test has as its system ECHCG. Kind of test: greenhouse post-emergence herbicidal activity. In kind it is in vivo, Echinocloa crus-galli. Conditions: scale 0 to 100.
Source text: as §1, §2, §3, §4

For a further test, the system named is STEME. As to the kind of experiment: greenhouse pre-emergence herbicidal activity. The format is in vivo, Stellaria media. Conditions: scale 0 to 100.
Source text: as §1, §5, §3, §4

For test [2], the system named is SETVI. Kind of test: greenhouse pre-emergence herbicidal activity. In kind it is in vivo, Setaria viridis. Conditions: scale 0 to 100.
Source text: as §1, §5, §3, §4

In the next test the test system is LAMAM. As to the kind of experiment: greenhouse pre-emergence herbicidal activity. The format is in vivo, Lamium amplexicaule. Conditions: scale 0 to 100.
Source text: as §1, §5, §3, §4

In the next test the test system is Abutilon theophrasti. Kind of test: greenhouse post-emergence herbicidal activity. In kind it is in vivo. Conditions: 6.25 g/ha, post-emergence method.
Source text: as §1, §2, §3, §4

The next test deals with Ambrosia elatior. Kind of test: greenhouse post-emergence herbicidal activity. The format is in vivo. Conditions: 6.25 g/ha, post-emergence method.
Source text: as §1, §2, §3, §4

Another test deals with Chenopodium album. Kind of test: greenhouse post-emergence herbicidal activity. In kind it is in vivo. Conditions: 6.25 g/ha, post-emergence method.
Source text: as §1, §2, §3, §4

For a further test, the system named is Pharbitis purpurea. Kind of test: greenhouse post-emergence herbicidal activity. The format is in vivo. Conditions: 6.25 g/ha, post-emergence method.
Source text: as §1, §2, §3, §4

The test system of a further test is Amaranthus retroflexus. Kind of test: greenhouse pre-emergence herbicidal activity. Conditions: 6.25 g/ha, pre-emergence method. In kind it is in vivo.
Source text: as §1, §5, §3, §4

The next test relates to Erigeron canadensis. As to the kind of experiment: greenhouse pre-emergence herbicidal activity. Conditions: 6.25 g/ha, pre-emergence method. In kind it is in vivo.
Source text: as §1, §5, §3, §4

Turning to `Cc1cnc(C2=NC(=O)C(C)(C(C)C)N2)c(C(=O)O)c1` (stereo not drawn) [B.30, imazapic, reference compound], the “herbicidal activity against BRAPL found” value in the test with BRAPL (B.30 10 g/ha a.s.) amounted to 70. In the test with DIGSA (B.30 10 g/ha a.s.), the “herbicidal activity against DIGSA found” value is given as 85.

`CC(C)N(C)S(=O)(=O)NC(=O)c1cc(-n2c(=O)cc(C(F)(F)F)n(C)c2=O)c(F)cc1Cl` [B.76, saflufenacil, reference compound]: the “herbicidal activity against PANDI found” value in the test with PANDI (B.76 6.25 g/ha a.s.) amounted to 55. Besides, the “herbicidal activity against ABUTH found” value in the test on ABUTH (B.76 6.25 g/ha a.s.) was 75. For the same compound, the “herbicidal activity against SETFA found” value in the test with SETFA (B.76 12.5 g/ha a.s.) is recorded as 30. The “herbicidal activity against SETVI found” value in the test on SETVI [1] (B.76 12.5 g/ha a.s.) was 40.

Take `CC(C)N.O=C(O)CNCP(=O)(O)O` [B.97, glyphosate-isopropylammonium, reference compound]: the “herbicidal activity against ECHCG found” value with ECHCG (B.97 135 g/ha a.s.) was 85.

With `CCC(CC)Nc1c([N+](=O)[O-])cc(C)c(C)c1[N+](=O)[O-]` [B.102, pendimethalin, reference compound], the “herbicidal activity against STEME found” value in the test with STEME (B.102 400 g/ha a.s.) amounted to 75.

Turning to `COC[C@H](C)N(C(=O)CCl)c1c(C)csc1C` [B.107, dimethenamid-P, reference compound], the “herbicidal activity against PANDI found” value in the test on PANDI (B.107 15 g/ha a.s.) turned out to be 95. For the same compound, in the test with SETVI [2] (B.107 15 g/ha a.s.), the “herbicidal activity against SETVI found” value is 70.

With `Cn1nc(C(F)(F)F)c(CS(=O)(=O)C2=NOC(C)(C)C2)c1OC(F)F` [B.117, pyroxasulfone, reference compound], in the test on STEME (B.117 6.25 g/ha a.s.), the “herbicidal activity against STEME found” value stood at 60. Further, the “herbicidal activity against LAMAM found” value in the test with LAMAM (B.117 6.25 g/ha a.s.) amounted to 35.

Regarding `C#CCN1C(=O)C(F)(F)Oc2cc(F)c(N3C(=O)C4=C(CCCC4)C3=O)cc21` [Ia18, 2-(2,2,7-Trifluoro-3-oxo-4-prop-2-ynyl-3,4-dihydro-2H-benzo[1,4]oxazin-6-yl)-4,5,6,7-tetrahydro-isoindole-1,3-dione], the “herbicidal activity against Abutilon theophrasti” value in the test on Abutilon theophrasti is recorded as “very good herbicidal activity (a very good herbicidal activity is given at values of at least 85)”. For the same compound, the “herbicidal activity against Ambrosia elatior” value in the test on Ambrosia elatior is given as “very good herbicidal activity (a very good herbicidal activity is given at values of at least 85)”. Moreover, the “herbicidal activity against Chenopodium album” value with Chenopodium album is “very good herbicidal activity (a very good herbicidal activity is given at values of at least 85)”. In the test with Pharbitis purpurea, the “herbicidal activity against Pharbitis purpurea” value was “very good herbicidal activity (a very good herbicidal activity is given at values of at least 85)”. For the same compound, the “herbicidal activity against Amaranthus retroflexus” value with Amaranthus retroflexus is given as “very good herbicidal activity (a very good herbicidal activity is given at values of at least 85)”. Also, the “herbicidal activity against Erigeron canadensis” value with Erigeron canadensis was “very good herbicidal activity (a very good herbicidal activity is given at values of at least 85)”. For the same compound, the “herbicidal activity against BRAPL found” value in the test with BRAPL (Ia18 6.25 g/ha a.s.) came out at 25. The “herbicidal activity against DIGSA found” value with DIGSA (Ia18 6.25 g/ha a.s.) amounted to 20. For the same compound, the “herbicidal activity against PANDI found” value in the test on PANDI (Ia18 12.5 g/ha a.s.) is given as 70; with PANDI (Ia18 25 g/ha a.s.) it was 95. Also, the “herbicidal activity against ABUTH found” value in the test with ABUTH (Ia18 12.5 g/ha a.s.) is on record as 55. In addition, the “herbicidal activity against SETFA found” value in the test on SETFA (Ia18 6.25 g/ha a.s.) was found to be 70. The “herbicidal activity against SETVI found” value in the test with SETVI [1] (Ia18 6.25 g/ha a.s.) stood at 55; with SETVI [2] (Ia18 25 g/ha a.s.), 90. In addition, in the test on ECHCG (Ia18 6.25 g/ha a.s.), the “herbicidal activity against ECHCG found” value is given as 30. Moreover, the “herbicidal activity against STEME found” value in the test on STEME (Ia18 12.5 g/ha a.s.) and in the test on STEME (Ia18 13 g/ha a.s.) was 65 each time. In addition, the “herbicidal activity against LAMAM found” value in the test with LAMAM (Ia18 12.5 g/ha a.s.) came out at 80.
